Experimental data published in patent US10125134B2 (Mirati Therapeutics, Inc., priority 2016, dated 2018).
Where two headings read alike, the source gives them in different places.

Tests used:
KRas G12C = KRas G12C (Homo sapiens, UniProt P01116, C118S/C51S/C80L/G12C); assay: KRas G12C Modification Assay (LCMS detection of covalent adduct); format: binding; conditions: normalized percent of control; tested at 5 μM concentration for 3 hours
Method: A 10 μL aliquot of each protein solution was then transferred to a 384 well microtiter plate. Initial compound stocks were generated at fifty times their desired final assay concentration in DMSO.
Exemplary compounds of Formula (I) were diluted 25-fold into K-Ras Assay Buffer to a final of two times their final concentration. A 10 μL aliquot of each diluted compound solution was then added to each of the protein solutions in the microtiter plate to initiate reaction. […] At each time point, the reactions were quenched with 20 μL of a 25 mM acetic acid solution. […] Once all reactions were quenched, the plates were heat sealed and the samples were injected into a LC/MS system for data acquisition.
Samples were injected in their liquid phase onto a C-3 reverse phase column to remove assay buffer and prepare the samples for mass spectrometer. The proteins were eluted from the column using an acetonitrile gradient and fed directly into the mass analyzer. Initial raw data analysis took place in Agilent MassHunter software immediately post data acquisition.
Raw data analysis of the intact protein was exclusively a deconvolution of the multiple charge states of each protein in solution using a maximum entropy deconvolution provided in Mass Hunter. To minimize complexity, only the data over limited mass ranges were considered for analysis, with a minimum of one Dalton mass step intervals. The heights of all masses identified during raw data analysis were exported to be further analyzed in Spotfire® data analysis software.
Final data analysis was a multistep process in the Spotfire® data analysis software package. Briefly, each protein mass was calculated as a percent of the total signal of that sample, that percentage was then normalized to the percentage of signal of the protein in the absence of reactive compounds. Those normalized signals were reported as normalized percent of control (POC). […] Key: “A”≤25% POC; “B”>25% POC−≤50% POC; “C”>50% POC and ND=not determined.

[1] = tested on: NCI-H358 cells (express KRas G12C), Phospho-ERK; assay: Cellular inhibition of KRas G12C: Phospho-ERK in NCI-H358 cells; format: cell-based
Method: The cellular inhibition of KRAs G12C by exemplary compounds of the present invention was determined by measuring the amount of a downstream marker of KRas activity, phosphorylated ERK (“Phospho-ERK”).
Cells were plated in poly-D-Lysine coated 96-well plates at a concentration of 50,000 cells/well and allowed to attach for 8-12 hours. Diluted compounds were then added at a final concentration of 0.5% DMSO. After 3 hours, the medium was removed, 150 μL of 4% formaldehyde was added and the plates were incubated for 20 minutes. The plates were washed with PBS, and permeabilized using 150 μL of ice cold 100% methanol for 10 minutes. Non-specific antibody binding to the plates was blocked using 100 μL Licor Blocking Buffer (Li-Cor Biotechnology, Lincoln Nebr.) for 1 hour at room temperature. Positive control samples and samples lacking cells were parallel processed with test samples as standards.
The amount Phospho-ERK was determined using an antibody specific for the phosphorylated form of ERK and compared to the amount of GAPDH. […] The plates were incubated for 2 hours at room temperature. The plates were washed with PBS+0.05% Tween 20.
Secondary antibodies used to visualize primary antibodies were added as follows: Anti-rabbit-680 diluted 1:1000 and Anti-mouse-800 diluted 1:1000 in Licor Block+0.05% Tween 20 and incubated for 1 hour at room temperature. The plates were washed with PBS+0.05% Tween 20. A 100 μL aliquot of PBS was added to each well and the plates were read on a LICOR AERIUS plate reader.
The pERK(Thr202/Tyr204) signal was normalized with the GAPDH signal and percent of DMSO control values were calculated. IC50 values were generated using a 4 parameter fit of the dose response curve. Key: “A”≥0.0001−≤1 μM; and “B”>1 μM.

[2] = Homo sapiens, NCI-H358, 3 h, pERK(Thr202/Tyr204) normalized with GAPDH, NCI-H358 cells, 3 hours, read-out: IC50
[3] = pERK(Thr202/Tyr204) normalized with GAPDH, NCI-H358 cells, 3 hours, read-out: IC50
[4] = Homo sapiens, pERK(Thr202/Tyr204) normalized with GAPDH, NCI-H358 cells, 3 hours, read-out: IC50

SMILES | POC (KRas G12C) | IC50 ([1]; Homo sapiens, NCI-H358, 3 h) [nM] | further results
C=CC(=O)N1CCN(c2nc(OC[C@]3(C)CCCN3C)nc3c2CCN(c2cccc4ccccc24)C3)CC1CC#N (stereo partly drawn) [Example 394, 2-(1-acryloyl-4-(2-(((S)-1,2-dimethylpyrrolidin-2-yl)methoxy)-7-(naphthalen-1-yl)-5,6,7,8-tetrahydropyrido[3,4-d]pyrimidin-4-yl)piperazin-2-yl)acetonitrile] | C (“C”>50% POC) |  | IC50 [1, 2]: 0.1 to 1000 nM
C=CC(=O)N1CCN(c2nc(OC[C@@H]3CCCN3C)nc3c2CCN(c2cccc4cc(F)ccc24)C3)CC1CC#N (stereo partly drawn) [Example 259, 2-[4-[7-(6-fluoro-1-naphthyl)-2-[[(2S)-1-methylpyrrolidin-2-yl]methoxy]-6,8-dihydro-5H-pyrido[3,4-d]pyrimidin-4-yl]-1-prop-2-enoyl-piperazin-2 yl]acetonitrile] | C (“C”>50% POC) |  | IC50 [1, 2]: 0.1 to 1000 nM
C=CC(=O)N1CC2(C1)CN(c1nc(OCCCN(C)C)nc3c1CCN(c1cc(O)cc4ccccc14)C3)C2 [Example 20, 1-(6-(2-(3-(dimethylamino)propoxy)-7-(3-hydroxynaphthalen-1-yl)-5,6,7,8-tetrahydropyrido[3,4-d]pyrimidin-4-yl)-2,6-diazaspiro[3.3]heptan-2-yl)prop-2-en-1-one] | C (“C”>50% POC) |  | IC50 [1, 2]: > 1000 nM
C=CC(=O)N1CCN(c2nc(OCCN3CCCC[C@H]3C)nc3c2CCN(c2cc(O)cc4ccccc24)C3)CC1 [Example 97, (R)-1-(4-(7-(3-hydroxynaphthalen-1-yl)-2-(2-(2-methylpiperidin-1-yl)ethoxy)-5,6,7,8-tetrahydropyrido[3,4-d]pyrimidin-4-yl)piperazin-1-yl)prop-2-en-1-one] | C (“C”>50% POC) |  | IC50 [1, 2]: 0.1 to 1000 nM
C/C=C/C(=O)N1CCN(c2nc(OC[C@@H]3CCCN3C)nc3c2CCN(c2cccc4ccccc24)C3)CC1CC#N (stereo partly drawn) [Example 293, 2-[1-[(E)-but-2-enoyl]-4-[2-[[(2S)-1-methylpyrrolidin-2-yl]methoxy]-7-(1-naphthyl)-6,8-dihydro-5H-pyrido[3,4-d]pyrimidin-4-yl]piperazin-2-yl]acetonitrile] | C (“C”>50% POC) |  | IC50 [1, 3]: 0.1 to 1000 nM
CC#CC(=O)N1CCN(c2nc(OC[C@@H]3CCCN3C)nc3c2CCN(c2cccc4ccccc24)C3)CC1CC#N (stereo partly drawn) [Example 242, 2-(1-(but-2-ynoyl)-4-(2-(((S)-1-methylpyrrolidin-2-yl)methoxy)-7-(naphthalen-1-yl)-5,6,7,8-tetrahydropyrido[3,4-d]pyrimidin-4-yl)piperazin-2-yl)acetonitrile] |  |  | IC50 [1, 4]: 0.1 to 1000 nM
C=CC(=O)N1CCN(c2nc(OC[C@@H]3CCCN3C)nc3c2CCN(c2cccc4cccc(Cl)c24)C3)C[C@@H]1CC#N [Example 331, 2-[(2S)-4-[7-(8-chloro-1-naphthyl)-2-[[(2S)-1-methylpyrrolidin-2-yl]methoxy]-6,8-dihydro-5H-pyrido[3,4-d]pyrimidin-4-yl]-1-prop-2-enoyl-piperazin-2-yl]acetonitrile] |  | 0.1 to 1000 | 
C=CC(=O)N1CCN(c2nc(OC[C@H]3CN(C)[C@H](C)CO3)nc3c2CCN(c2cccc4ccccc24)C3)C[C@@H]1CC#N [Example 449, 2-((S)-1-Acryloyl-4-(2-(((2R,5R)-4,5-dimethylmorpholin-2-yl)methoxy)-7-(naphthalen-1-yl)-5,6,7,8-tetrahydropyrido[3,4-d]pyrimidin-4-yl)piperazin-2-yl)acetonitrile] | C (“C”>50% POC) |  | 
C=CC(=O)N1CCN(c2nc(OC[C@]3(C)CCCN3C)nc3c2CCN(c2cccc4ccccc24)C3)CC1CC#N (stereo partly drawn) [Example 251, 2-(1-acryloyl-4-(2-(((S)-1,2-dimethylpyrrolidin-2-yl)methoxy)-7-(naphthalen-1-yl)-5,6,7,8-tetrahydropyrido[3,4-d]pyrimidin-4-yl)piperazin-2-yl)acetonitrile] |  | 0.1 to 1000 | 
C=CC(=O)N1CCN(c2nc(OC[C@@H]3CCCN3C)nc3c2CCN(c2cccc(C)c2C(F)(F)F)C3)C[C@@H]1CC#N [Example 392, 2-((S)-1-acryloyl-4-(7-(3-methyl-2-(trifluoromethyl)phenyl)-2-(((S)-1-methylpyrrolidin-2-yl)methoxy)-5,6,7,8-tetrahydropyrido[3,4-d]pyrimidin-4-yl)piperazin-2-yl)acetonitrile] |  |  | IC50 [1, 3]: 0.1 to 1000 nM
C=CC(=O)N1CCN(c2nc(OC[C@@H]3CCCN3C)nc3c2CCN(c2cccc4cccc(OC)c24)C3)C[C@@H]1CC#N [Example 463, 2-((S)-1-acryloyl-4-(7-(8-methoxynaphthalen-1-yl)-2-(((S)-1-methylpyrrolidin-2-yl)methoxy)-5,6,7,8-tetrahydropyrido[3,4-d]pyrimidin-4-yl)piperazin-2-yl)acetonitrile] |  |  | IC50 [1, 4]: > 1000 nM
C=CC(=O)N1CCN(c2nc(OC[C@@H]3CCCN3C)nc3c2CCN(c2cccc4cccc(Cl)c24)C3)CC1CC#N (stereo partly drawn) [Example 310, 2-(1-acryloyl-4-(7-(8-chloronaphthalen-1-yl)-2-(((S)-1-methylpyrrolidin-2-yl)methoxy)-5,6,7,8-tetrahydropyrido[3,4-d]pyrimidin-4-yl)piperazin-2-yl)acetonitrile] |  | 0.1 to 1000 | 
C=CC(=O)N1CCN(c2nc(OC[C@H]3CCCN3C)nc3c2CCN(c2cccc(F)c2C(F)(F)F)C3)C[C@@H]1CC#N [Example 382, 2-((S)-1-acryloyl-4-(7-(3-fluoro-2-(trifluoromethyl)phenyl)-2-(((R)-1-methylpyrrolidin-2-yl)methoxy)-5,6,7,8-tetrahydropyrido[3,4-d]pyrimidin-4-yl)piperazin-2-yl)acetonitrile] |  |  | IC50 [1, 3]: 0.1 to 1000 nM
C=CC(=O)N1CCN(c2nc(OC[C@@H]3CCCN3C)nc3c2CCN(c2cc(O)cc4ccccc24)C3)CC1 [Example 127, (S)-1-(4-(7-(3-hydroxynaphthalen-1-yl)-2-((1-methylpyrrolidin-2-yl)methoxy)-5,6,7,8-tetrahydropyrido[3,4-d]pyrimidin-4-yl)piperazin-1-yl)prop-2-en-1-one] |  | 0.1 to 1000 | 
C=CC(=O)N1CCN(c2nc(OC[C@H]3CN(C)CCO3)nc3c2CCN(c2cccc4ccccc24)C3)CC1CC#N (stereo partly drawn) [Example 441, 2-(1-Acryloyl-4-(2-(((R)-4-methylmorpholin-2-yl)methoxy)-7-(naphthalen-1-yl)-5,6,7,8-tetrahydropyrido[3,4-d]pyrimidin-4-yl)piperazin-2-yl)acetonitrile] | C (“C”>50% POC) |  | 
C=CC(=O)N1CCN(c2nc(OC[C@@H]3CCCN3C)nc3c2CCN(c2cccc4cccc(C#N)c24)C3)C[C@@H]1CC#N [Example 464, 8-(4-((S)-4-acryloyl-3-(cyanomethyl)piperazin-1-yl)-2-(((S)-1-methylpyrrolidin-2-yl)methoxy)-5,8-dihydropyrido[3,4-d]pyrimidin-7(6H)-yl)-1-naphthonitrile] |  |  | IC50 [1, 4]: 0.1 to 1000 nM
C=CC(=O)N1CCN(c2nc(OC[C@H]3CCCN3C)nc3c2CCN(c2cc(O)cc4ccccc24)C3)CC1 [Example 187, (R)-1-(4-(7-(3-hydroxynaphthalen-1-yl)-2-((1-methylpyrrolidin-2-yl)methoxy)-5,6,7,8-tetrahydropyrido[3,4-d]pyrimidin-4-yl)piperazin-1-yl)prop-2-en-1-one] |  | 0.1 to 1000 | 
C=CC(=O)N1CCN(c2nc(OC[C@@H]3CCCN3C)nc3c2CCN(c2cccc4ccccc24)C3)CC1 [Example 200, (S)-1-(4-(2-((1-methylpyrrolidin-2-yl)methoxy)-7-(naphthalen-1-yl)-5,6,7,8-tetrahydropyrido[3,4-d]pyrimidin-4-yl)piperazin-1-yl)prop-2-en-1-one] |  | > 1000 | 
